Among the data in patent publication US8946412B2 (priority 2009, dated 2015) are IC50 values, retold here.

The experiment addresses α7-subtype of nicotinic receptors (Rattus norvegicus, UniProt Q05941). Kind of experiment: biochemical. Type of experiment: binding.

Each structure is given as a SMILES string. Structures can show the parent of a compound that is named as a salt. Where two headings read alike, the source gives them in different places.

Sequence of α7-subtype of nicotinic receptors (Q05941 23-502): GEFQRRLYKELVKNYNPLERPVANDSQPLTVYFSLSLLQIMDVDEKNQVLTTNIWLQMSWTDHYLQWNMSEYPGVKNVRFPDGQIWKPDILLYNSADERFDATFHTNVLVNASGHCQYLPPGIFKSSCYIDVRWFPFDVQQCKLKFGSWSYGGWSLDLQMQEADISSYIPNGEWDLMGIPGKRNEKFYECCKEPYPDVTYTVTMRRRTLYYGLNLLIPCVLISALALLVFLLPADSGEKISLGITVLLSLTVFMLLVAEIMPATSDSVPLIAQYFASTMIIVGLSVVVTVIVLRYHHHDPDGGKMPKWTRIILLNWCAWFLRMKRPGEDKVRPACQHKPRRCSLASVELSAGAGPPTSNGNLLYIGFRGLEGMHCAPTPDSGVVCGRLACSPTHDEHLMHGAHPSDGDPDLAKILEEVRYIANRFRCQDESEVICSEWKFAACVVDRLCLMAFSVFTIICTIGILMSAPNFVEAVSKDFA

Usually IC50 stands for the concentration that inhibits the measured activity by half. `FCCn1cccc1-c1nnc(N2CCN3CCC2CC3)o1` [Compound 1, 2-(1,4-Diazabicyclo[3.2.2]nonan-4-yl)-5-[1-(2-fluoroethyl)pyrrol-2-yl]-1,3,4-oxadiazole fumaric acid salt] returned an IC50 of 11 nM.

Turning to `c1c[nH]c(-c2nnc(N3CCN4CCC3CC4)o2)c1` [Compound 3, 2-(1,4-Diazabicyclo[3.2.2]nonan-4-yl)-5-(1H-pyrrol-2-yl)-1,3,4-oxadiazole free base], the IC50 (rat brain, concentration inhibiting specific binding of 3H-α-bungarotoxin by 50%, read-out: IC50 Inhibition of 3H-α-Bungarotoxine Binding) came out at 17 nM.
